Like-named read-outs stand apart in the source and are kept apart here.
Columns and labels:
[1] = read-out: Human plasma Cmax; total plasma Cmax.tot, median of 9 literature references; cited from earlier work
[2] = cited from earlier work
HepG2 cells [3] = conditions: cited from earlier work
HepG2 cells [4] = conditions: cited from earlier work; remark: listed apart in the source
PHH spheroids [5] = conditions: cited from earlier work
hLiMTs = assay: Combined HCI (HCS) and cellular ATP 3D assay in hLiMTs
[6] = tested on: THLE-Null and THLE-3A4 cells; conditions: In vitro Assay; ref Gustafsson 2014; cited from earlier work
[7] = cited from earlier work; remark: listed apart in the source
rBsep [8] = conditions: In vitro Assay; ref Dawson 2012; cited from earlier work
[9] = phase I clinical trials; ref Manning and Swartz 1995; McKenzie et al. 1995; cited from earlier work
PHH liver spheroid = tested on: PHH liver spheroid; design: method as in Foster et al. 2019; conditions: liver-chip of comparable sensitivity, ref Foster et al. 2019; cited from earlier work
HepaRG spheroids = assay: Combined HCI (HCS) and cellular ATP 3D assay in HepaRG spheroids; conditions: for AC50 / minimal effective concentration: Homo sapiens
HepG2 cells [10] = conditions: cited from earlier work; remark: listed apart in the source
PHH spheroids [11] = tested on: PHH spheroids; design: method as in Bell et al. 2016; conditions: 48-h exposure; ref Bell et al. 2016; cited from earlier work
[12] = plasma free fraction; cited from earlier work
[13] = Plasma free fraction (fu) and unbound Cmax (Cmax,u); format: in vitro ADME, human; conditions: unbound plasma Cmax
Experimental: The prediction of DILI severity was evaluated further using the 3D combined HCI assays using plasma-free fraction. The majority of fu values were obtained from literature, when unavailable in-house prediction was utilised. Unbound plasma Cmax concentrations (Cmax,u) were derived by multiplying total plasma Cmax with the corresponding free fraction (fu) for each compound.

rBsep [14] = tested on: rBsep; design: method as in Dawson 2012; conditions: ref Dawson 2012, cited from earlier work
[15] = In vitro Assay, ref Persson 2013
[16] = Microtissue model structural based (HCI), combined HCS and ATP, MEC < 25 × Cmax.tot cut-off

O=c1[nH]c(=O)n([C@@H]2O[C@H](CO)[C@@H](O)[C@@H]2F)cc1I [fialuridine]
Cmax [1]: 820 nM | DILI severity category (Chen et al. [2016]) ([2]; LTKB DILIrank category, ref Chen et al. 2016): Most | DILI severity category (Chen 2016) ([2]; human DILI classification, LTKB DILIrank, ref Chen et al. 2016): Most | DILI severity category ([2]; human DILI severity, ref Chen et al.): Most | DILI +VE (5-8), DILI -VE (-4) ([2]; ref Chen 2016): +VE | DILI severity category ([2]; ref Chen 2016): vMost-DILI-Concern | Cluser analysis (HepG2 cells [3]; [15]): -VE | Structural based (HCI) (HepG2 cells [3]; [15]): +VE | DILI in vitro assay prediction, Persson (2013) (HepG2 cells [3]; Structural based (HCI), HepG2, ref Persson et al. 2013): -VE | Structural based (HCI) (HepG2 cells [4]; In vitro Assay, ref Tolosa 2012): +VE | DILI in vitro assay prediction, Tolosa (2012) (HepG2 cells [4]; Structural based (HCI), HepG2, ref Tolosa et al. 2012): +VE | hLiMTs ATP <20 x Cmax (PHH spheroids [5]; In vitro Assay, ref Vorrink 2018): +VE (IC20 < 20 × Cmax.tot cut-off) | DILI in vitro assay prediction, Vorrink (2018) (PHH spheroids [5]; PHH spheroids, ATP, 14 days, IC20 < 20 × Cmax.tot, ref Vorrink et al. 2018): +VE (IC20 < 20 × Cmax.tot cut-off) | AC50 (hLiMTs; Homo sapiens, read-out: ATP endpoint AC50): 6.3 µM | minimal effective concentration (hLiMTs; Homo sapiens, read-out: ATP endpoint MEC): 0.932 µM | minimal effective concentration (hLiMTs; Homo sapiens, read-out: HCS endpoint MEC): 6.54 µM | DILI prediction hLiMTs (HCS-MEC) (hLiMTs; [16]): +VE (MEC < 25 × Cmax.tot cut-off) | hLiMTs <25x Avg Cmax ATP (hLiMTs; hLiMTs, ATP endpoint, cut-off <25x Avg Cmax): +ve | hLiMTs <100x Avg Cmaxu ATP (hLiMTs; hLiMTs, ATP endpoint, cut-off <100x Avg Cmaxu): +ve (<100x Avg Cmaxu) | hLiMTs <25x Avg Cmax HCS (hLiMTs; hLiMTs, HCS endpoints, cut-off <25x Avg Cmax): +ve | hLiMTs <100x Avg Cmaxu HCS (hLiMTs; hLiMTs, HCS endpoints, cut-off <100x Avg Cmaxu): +ve (<100x Avg Cmaxu) | hLiMTs <25x Avg Cmax All (hLiMTs; hLiMTs, all endpoints (ATP and HCS), cut-off <25x Avg Cmax): +ve | hLiMTs Cmax max All (hLiMTs; hLiMTs, all endpoints, Cmax max used): +ve | hLiMTs Cmax min All (hLiMTs; hLiMTs, all endpoints, Cmax min used): +ve | hLiMTs <10 uM All (hLiMTs; hLiMTs, all endpoints, cut-off <10 uM): +ve (<10 uM) | hLiMTs <100x Avg Cmaxu All (hLiMTs; hLiMTs, all endpoints, cut-off <100x Avg Cmaxu): +ve (<100x Avg Cmaxu) | THLE-Null [6]: -VE | THLE-Null/3A4 [6]: -VE | Assigned DILI category ([7]; Chen et al. 2016 or literature alignment, ref Chen et al. 2016): 3 | In vivo DILI ([7]; ref Dawson 2012): +VE | In vivo DILI ([7]; ref Gustafsson 2014): +VE | In vivo DILI ([7]; ref O'Brien 2006): +VE | In vivo DILI ([7]; ref Persson 2013): +VE | In vivo DILI ([7]; ref Tolosa 2012): +VE | In vivo DILI ([7]; ref Vorrink 2018): +VE | Inhibition of rBsep cutoff<1& cmax u>.2 (rBsep [8]): -VE | Inhibition of rBsep cutoff<3 (rBsep [8]): -VE | clinical liver finding [9]: fatal hepatotoxicity | detection in 3D microtissues (PHH liver spheroid): detected | HepaRG <25x Avg Cmax ATP (HepaRG spheroids; HepaRG, ATP endpoint, cut-off <25x Avg Cmax): +ve | HepaRG <100x Avg Cmaxu ATP (HepaRG spheroids; HepaRG, ATP endpoint, cut-off <100x Avg Cmaxu): +ve (<100x Avg Cmaxu) | HepaRG <25x Avg Cmax HCS (HepaRG spheroids; HepaRG, HCS endpoints, cut-off <25x Avg Cmax): +ve | HepaRG <100x Avg Cmaxu HCS (HepaRG spheroids; HepaRG, HCS endpoints, cut-off <100x Avg Cmaxu): +ve (<100x Avg Cmaxu) | HepaRG <25x Avg Cmax All (HepaRG spheroids; HepaRG, all endpoints (ATP and HCS), cut-off <25x Avg Cmax): +ve | HepaRG Cmax max All (HepaRG spheroids; HepaRG, all endpoints, Cmax max used): +ve | HepaRG Cmax min All (HepaRG spheroids; HepaRG, all endpoints, Cmax min used): +ve | HepaRG <10 uM All (HepaRG spheroids; HepaRG, all endpoints, cut-off <10 uM): +ve (<10 uM) | HepaRG <100x Avg Cmaxu All (HepaRG spheroids; HepaRG, all endpoints, cut-off <100x Avg Cmaxu): +ve (<100x Avg Cmaxu) | AC50 (HepaRG spheroids; HepaRG, read-out: ATP endpoint AC50): 9.16 µM | minimal effective concentration (HepaRG spheroids; HepaRG, read-out: ATP endpoint MEC): 1.28 µM | AC50 (HepaRG spheroids; HepaRG, read-out: HCS endpoint AC50): 115 µM | minimal effective concentration (HepaRG spheroids; HepaRG, read-out: HCS endpoint MEC): 5.78 µM | DILI prediction HepaRG spheroids (HCS-MEC) (HepaRG spheroids; [16]): +VE (MEC < 25 × Cmax.tot cut-off) | Structural based (HCI) (HepG2 cells [10]; In vitro Assay, ref O'Brien 2006): +VE | DILI in vitro assay prediction, O'Brien (2006) (HepG2 cells [10]; Structural based (HCI), HepG2, ref O'Brien et al. 2006): +VE (lowest HCI endpoint IC50 (or in the absence of dose–response < 100 µM) < 30 × total human plasma exposure levels (Cmax.tot)) | toxicity in PHH spheroids (PHH spheroids [11]): no toxicity | fu [12]: 0.360 | Human plasma Cmax,u [13]: 0.295 µM

CO[C@H]1/C=C/O[C@@]2(C)Oc3c(C)c(O)c4c(O)c(cc(O)c4c3C2=O)NC(=O)/C(C)=C\C=C\[C@H](C)[C@H](O)[C@@H](C)[C@@H](O)[C@@H](C)[C@H](OC(C)=O)[C@@H]1C [rifamycin SV]
In vivo DILI ([7]; assignment in Dawson 2012, ref Dawson 2012): +VE | Inhibition of rBsep cutoff<1& cmax u>.2 (rBsep [14]; cutoff<1& cmax u>.2): +VE | Inhibition of rBsep cutoff<3 (rBsep [14]; cutoff<3): +VE

Source: article PMC7395068, “The evolution of strategies to minimise the risk of human drug-induced liver injury (DILI) in drug discovery and development” (Archives of Toxicology, 2020)
